# Experimental data as given in patent publication US9056899B2 (priority 2008, dated 2015).
# Key:
# E. coli EMG2 [1] = test: Ofloxacin killing assay; assay type: cell-based; settings: 60 ng/mL ofloxacin, no phage, 6 hours of treatment
# Procedure: Determination of colony forming units. To obtain CFU counts, 150 μL of relevant cultures were collected, washed with 1× phosphate-buffered saline (PBS), recollected, and resuspended in 150 μL of 1×PBS. Serial dilutions were performed with 1×PBS and sampled on LB agar plates. LB agar plates were incubated at 37° C. overnight before counting.
# Ofloxacin killing assay. To determine the adjuvant effect of engineered phage (FIG. 1B, FIG. 3A and FIG. 3D), the inventors grew 1:500 dilutions of overnight EMG2 cells for 3 hours and 30 minutes at 37° C. and 300 rpm to late-exponential phase and determined initial CFUs. Then, the inventors added 60 ng/mL ofloxacin by itself or in combination with 10^8 PFU/mL bacteriophage (unmodified φunmod or engineered φLexA, φSoxR, φcsr, φompF, or φCsr-ompF phage) and treated at 37° C. and 300 rpm. At indicated time points, the inventors determined CFUs as described above. Mean killing (Δlog10 (CFU/mL)) was determined by subtracting mean initial log10 (CFU/mL) from mean log10 (CFU/mL) after treatment in order to compare data from different experiments. This protocol was replicated with E. coli RFS289 to determine the ofloxacin-enhancing effect of engineered φlexA3 phage against antibiotic-resistant bacteria (FIG. 2). […]
# E. coli EMG2 [2] = test: Antibiotic resistance assay; assay type: cell-based; settings: 30 ng/mL ofloxacin 24 hours; phage (10^9 PFU/mL) added for the last 12 hours where named
# Procedure: Antibiotic resistance assay. To analyze the effect of subinhibitory concentrations of ofloxacin on the development of antibiotic-resistant mutants, the inventors grew 1:10^8 dilutions of overnight EMG2 in LB media containing either no ofloxacin (FIG. 4) or 30 ng/mL ofloxacin (FIG. 7). After 12 hours of growth at 37° C. and 300 rpm, the inventors split the cells grown in no ofloxacin into 100 uL aliquots with no ofloxacin in 60 wells in 96-well plate format (Costar 3370; Fisher Scientific, Pittsburgh, Pa.). The inventors also split the cells grown in 30 ng/mL ofloxacin into 100 uL aliquots in 60 wells with either no phage and 30 ng/mL ofloxacin (FIG. 7B), φunmod phage and 30 ng/mL ofloxacin (FIG. 7C), and φlexA3 and 30 ng/mL ofloxacin (FIG. 7D) in 96-well plate format. The inventors placed the 96-well plates in 37° C. and 300 rpm with plastic bags to minimize evaporation. After 12 hours of treatment, the inventors plated cultures from each well on LB agar+100 ng/mL ofloxacin to select for mutants that developed resistance against ofloxacin. To compare results, the inventors plotted histograms of the number of resistant bacteria found in each well in FIGS. 4 and 8.
# E. coli EMG2 [3] = test: Survival of mice infected with bacteria; assay type: in vivo; settings: 8.8×10^7 CFU/mouse i.p.; 1 hour later i.v. 0.2 mg/kg ofloxacin with or without 10^9 PFU/mouse phage; observed 5 days
# Procedure: After 1 hour, the mice received either no treatment or intravenous treatment with no phage, unmodified phage φunmod, or engineered phage φlexA3 with 0.2 mg/kg ofloxacin. 10^9 PFU/mouse phage was used.
# Increasing Survival of Mice Infected with Bacteria. To determine the clinical relevance of antibiotic-enhancing phage in vivo, the inventors applied the engineered phage φlexA3 with ofloxacin to prevent death in mice infected with bacteria. Mice were injected with E. coli EMG2 intraperitoneally 1 hour prior to receiving different intravenous treatments (FIG. 3A). Eighty percent of mice that received φlexA3 with ofloxacin survived, compared with 50% and 20% for mice that received φunmod plus ofloxacin or ofloxacin alone, respectively (FIG. 3B).
# E. coli EMG2 [4] = test: Minimum inhibitory concentration of ofloxacin; assay type: cell-based; settings: Escherichia coli, data not shown
structure (smiles),measurement,setting,value
CC1COc2c(N3CCN(C)CC3)c(F)cc3c(=O)c(C(=O)O)cn1c23 (stereo not shown) [ofloxacin],reduction of bacteria exposed only to ofloxacin,E. coli EMG2 [1],about 1.7 log10 (CFU/mL)
same,number of mutants resistant to 100 ng/mL ofloxacin (median of 60 samples),E. coli EMG2 [2],1592
same,mice that survived,E. coli EMG2 [3],20%
same,MIC,E. coli EMG2 [4],0.06 µg/mL
